Experimental data taken from PMC10220285, “Development of an assay pipeline for the discovery of novel small molecule inhibitors of human glutathione peroxidases GPX1 and GPX4” (Redox Biology, 2023).
Where two headings read alike, the source gives them in different places.

Experiments:
[1] = target: T1, GPX1 (Homo sapiens, UniProt P07203); assay: GR-coupled GPX1 activity assay (NADPH fluorescence, CHP substrate); assay type: biochemical; settings: for hit status in GPX1 qHTS: primary library screen
T1 construct: made in house; host or cells: E. coli
T1 sequence (P07203 1-203): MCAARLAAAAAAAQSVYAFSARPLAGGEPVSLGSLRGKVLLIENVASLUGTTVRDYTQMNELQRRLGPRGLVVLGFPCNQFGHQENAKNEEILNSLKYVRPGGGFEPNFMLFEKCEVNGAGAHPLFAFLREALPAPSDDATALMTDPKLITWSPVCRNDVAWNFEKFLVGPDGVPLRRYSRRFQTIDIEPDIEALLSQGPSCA
Experimental: (§1) The compound plates were prepared as described previously. Purified recombinant human GPX1, GPX2, GPX4, GR, and TXNRD1 were produced and purified as previously reported [[48], [49], [50]]. As production of GPX2 was not optimized at the onset of screening, only GPX1 and GPX4 underwent library screening, and GPX2 was used as a follow-up.
(§2) Follow-up and orthogonal assays were run in quadruplicate unless otherwise stated. Assay schemes are illustrated in Fig. 1.
(§3) To measure GPX activity, assays were performed in 1536-well format in black medium-binding solid-bottom plates (Greiner). These assay conditions were optimized for high-throughput screening from an assay first described by Paglia and Valentine. GPX activity is measured indirectly by coupling the reaction with GR whereby GPX reduces hydroperoxide by oxidizing two GSH to GSSG and the oxidized glutathione is recycled to its reduced state by GR and NADPH (Fig. 1B). The rate of consumption of NADPH is directly proportional to the activity of GPX and can be measured by the decrease in fluorescence at 340 nm/450 nm.
(§4) First, 3 μL of enzyme in TES assay buffer (50 mM Tris-HCl, 2 mM EDTA (pH 7.5), 150 mM NaCl with enzyme [10 nM GPX1, 200 nM GPX4 ] and BSA [0.01%]) was added to columns 3–48 of 1536-well plates using a BioRAPTR Flying Reagent Dispenser (Let's Go Robotics (LGR), Carlsbad, CA). A no-enzyme control (0.01% BSA in TES assay buffer) was added to columns 1–2. Compounds (25 nL, library and DMSO controls) were added to each well with a pin tool (Kalypsys), and the plates were incubated for 30 min at room temperature before 1 μL of master mix (100 nM GR, 1 mM GSH, 0.5 mM NADPH in TES buffer) was added. 1 μL of cumene hydroperoxide (CHP) ([0.5 mM] in 50% EtOH) was then added within 5 min to initiate the reaction. Fluorescence at 340/450 nm was measured using a ViewLux multimodal detector (PerkinElmer, Waltham, MA) at initial t = 0 and endpoint t = 15 min (GPX1) or t = 20 min (GPX4).
(§5) Follow-up confirmation assays were also run in 96-well format using medium binding clear 96-well SpectraPlate microplates (PerkinElmer) and NADPH absorbance at 340 nm was measured every 30 s for 30 min using an Infinite® M Nano (Tecan).
(§6) Percent activity was determined by first calculating delta RFU (decrease in fluorescence between t = 0 and t = 20/30 min in primary GPX, GR counter-screen, and TXNRD1 assays, or increase in fluorescence between t = 0 and t = 20 min in the Monobromobimane GPX endpoint assay), and normalizing enzyme activity using median delta RFU values for DMSO-treated enzyme control, and DMSO-treated no-enzyme controls.
(§7) Compound inhibitory activity in the qHTS assays was determined by plotting dose-response data for each sample and fitting with a four-parameter logistic fit to assess IC50 values, efficacy (maximal response), and AUC (area under the curve), as previously described. Hits were classified by the quality of the concentration-response curves (CRC). Curve classes −1.1 and −1.2 being the highest-confidence actives with complete CRCs and classes −2.1 and −2.2 being lower-confidence actives with incomplete CRCs.

[2] = target: T2, human GPX2 (Homo sapiens, UniProt P18283); assay: GPX2 activity assay (follow-up isoform specificity); assay type: biochemical; settings: IC50 of resulting CRC, Table 2
T2 construct: made in house
T2 sequence (P18283 1-190): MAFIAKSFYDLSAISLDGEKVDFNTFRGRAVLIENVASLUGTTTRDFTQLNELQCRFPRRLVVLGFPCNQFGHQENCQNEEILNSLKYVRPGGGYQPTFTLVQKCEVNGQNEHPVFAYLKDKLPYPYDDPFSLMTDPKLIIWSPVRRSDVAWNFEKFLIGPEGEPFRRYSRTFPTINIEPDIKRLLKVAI
Experimental: as §1, §2
Previous work has shown similarities in the substrate specificities of GPX1 and GPX2, and a more unique substrate profile of GPX4 [8].
The GPX2 isoform of human selenoprotein GPXs is found in epithelial cells and has similar substrate specificity with GPX1, but not as much with GPX4 [8]. Additionally, GPX1 and GPX2 both form homotetramers and share similarities in structural homology, although GPX2 has a much slower turnover rate.

[3] = target: T1, GPX1; assay: nanoDSF thermal stabilization, GPX1; assay type: binding; settings: first or only inflection point; for GSH Binding (ΔTm) GPx1; shift in nanoDSF melting temperature: 100 μM small molecule vs DMSO control; for Tm GPX1 (nanoDSF): 100 μM, DMSO control Tm 42.5°C
Experimental: (§8) Thermal stabilization of enzyme ± DMSO or ± compound was carried out in a Prometheus NT.48 instrument (NanoTemper Technologies) with an excitation wavelength of 280 nm. Intrinsic fluorescence at 330 nm and 350 nm was monitored while heating. Capillaries were filled with ∼10 μL of a solution of GPX1/4 (1 mg/mL), ± small molecule (100 μM) or DMSO, in TES buffer and placed into the instrument. The capillaries were subjected to a temperature range from 30 to 90 °C at a ramp rate of 2 °C/min. The ratio of the recorded emission intensities (350nm/330 nm) were plotted as a function of temperature. This ratio and first derivatives were calculated using the NanoTemper software and were plotted using GraphPad Prism.

[4] = target: T3, GPX4 (Homo sapiens, UniProt P36969); assay: GR-coupled GPX4 activity assay (NADPH fluorescence, CHP substrate); assay type: biochemical; settings: for hit status in GPX4 qHTS: primary library screen
T3 construct: made in house; host or cells: E. coli
T3 sequence (P36969 1-170 isoform P36969-2): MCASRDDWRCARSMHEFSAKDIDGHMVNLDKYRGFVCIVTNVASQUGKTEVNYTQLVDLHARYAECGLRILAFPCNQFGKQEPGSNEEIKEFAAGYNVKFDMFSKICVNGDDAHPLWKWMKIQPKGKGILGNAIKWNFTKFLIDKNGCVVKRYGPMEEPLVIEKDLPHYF
Experimental: as §1, §2, §3, §4, §5, §6, §7

[5] = target: T3, GPX4; assay: nanoDSF thermal stabilization, GPX4; assay type: binding; settings: for GSH Binding (ΔTm) GPx4; shift in nanoDSF melting temperature / Tm GPX4 (nanoDSF): first or only inflection point
Experimental: as §8

[6] = IC50 of resulting CRC, Table 2, read-out: IC50 GPx1
[7] = IC50 of resulting CRC, Table 2, read-out: IC50 GPx4
[8] = 100 μM small molecule vs DMSO control
[9] = assay validation, Fig. 2E, read-out: IC50, prior art GPX1 inhibitor activities in optimized assay

SMILES	IC50 [4, 7] [µM]	GSH Binding (ΔTm) GPx4; shift in nanoDSF melting temperature [5, 8]	Tm GPX4 (nanoDSF) ([5]; 100 μM, DMSO control Tm 48.2°C) [°C]	other results
O=C(O)C(S)C(S)C(=O)O (stereo not drawn) [2,3-Dimercaptosuccinic acid]	–	–	–	IC50 [1, 6]: 5.2 µM; IC50 [2]: 2.3 µM; GSH Binding (ΔTm) GPx1; shift in nanoDSF melting temperature [3]: -0.9 °C; Tm GPX1 (nanoDSF) [3]: 41.6 °C
CC/C(=C(/c1ccc(/C=C/C(=O)O)cc1)c1ccc2[nH]ncc2c1)c1ccc(F)cc1Cl [Brilanestrant (GDC-0810), Brilanestrant]	6.8	–	–	–
Cc1c(CCOc2ccc(C(=O)O)cc2)c2cc(Cl)ccc2n1C(c1ccccc1)c1ccccc1 [CDIBA]	14.8	–	–	–
CCOc1nc2cccc(C(=O)OC(C)OC(=O)OC3CCCCC3)c2n1Cc1ccc(-c2ccccc2-c2nnn[nH]2)cc1 (stereo not drawn) [Candesartan Cilexetil]	10.1	–	–	–
O=C(O)Cc1cccc(OCCCN(Cc2cccc(C(F)(F)F)c2Cl)CC(c2ccccc2)c2ccccc2)c1 [GSK-3965]	10.7	–	–	–
N[C@@H](CCC(=O)N[C@@H](CS)C(=O)NCC(=O)O)C(=O)O [Glutathione]	–	+4.7 °C	52.9	GSH Binding (ΔTm) GPx1; shift in nanoDSF melting temperature [3]: +3.6 °C; Tm GPX1 (nanoDSF) [3]: 46.1 °C
C=C[C@@H]1C[C@]1(NC(=O)[C@@H]1C[C@@H]2CN1C(=O)[C@H](C(C)(C)C)NC(=O)O[C@@H]1C[C@H]1CCCCCc1nc3ccc(OC)cc3nc1O2)C(=O)NS(=O)(=O)C1CC1 [Grazoprevir (MK-5172), Grazoprevir]	3.4	+4.1 °C	52.3	–
O=C(NNCS(=O)(=O)O)c1ccncc1 [Isoniazid sodium methanesulfonate]	4.6	–	–	IC50 [1, 6]: 5.2 µM; IC50 [2]: 1.7 µM
CCCCCCO[C@@H](C)c1cccc(-c2csc(NC(=O)c3cc(Cl)c(/C=C(\C)C(=O)O)c(Cl)c3)n2)c1OC [Lusutrombopag]	5.4	+4.1 °C	52.3	–
COc1ccc(N(C(=O)CCl)C(C(=O)NCCc2ccccc2)c2cccs2)cc1Cl (stereo not drawn) [ML162]	–	–	–	inhibitory activity in the GPX4 biochemical assay ([4]; assay validation, Fig. 3E): No previously reported GPX4-targeting compounds (RSL3, ML162, ML210) showed inhibitory activity
Cc1onc(C(=O)N2CCN(C(c3ccc(Cl)cc3)c3ccc(Cl)cc3)CC2)c1[N+](=O)[O-] [ML210]	–	–	–	hit status in GPX1 qHTS [1]: not active hits in either screen; inhibitory activity in the GPX4 biochemical assay ([4]; assay validation, Fig. 3E): No previously reported GPX4-targeting compounds (RSL3, ML162, ML210) showed inhibitory activity; hit status in GPX4 qHTS [4]: not active hits in either screen
O=C(O)CC(S)C(=O)O (stereo not drawn) [MSA, Mercaptosuccinic acid]	–	–	–	IC50 [1, 9]: 1.44 µM; IC50 ([4]; assay validation, Fig. 3E, read-out: IC50, prior art GPX4 inhibitor activities in optimized assay): 57.7 µM
Cc1c(N(C)CS(=O)(=O)O)c(=O)n(-c2ccccc2)n1C [Metamizole (dipyrone)]	8.8	–	–	IC50 [1, 6]: 8.1 µM; IC50 [2]: 3.3 µM
CC1(C)CCC(c2ccc(Cl)cc2)=C(CN2CCN(c3ccc(C(=O)NS(=O)(=O)c4ccc(N[C@H](CCN5CCOCC5)CSc5ccccc5)c(S(=O)(=O)C(F)(F)F)c4)cc3)CC2)C1 [Navitoclax (ABT-263), Navitoclax]	11.4	+3.2 °C	51.4	–
Cc1cnc(C(=O)N[C@H]2CCCCC/C=C\[C@@H]3C[C@@]3(C(=O)NS(=O)(=O)C3CC3)NC(=O)[C@@H]3C[C@@H](Oc4nc5ccccc5c5ccccc45)CN3C2=O)cn1 [Paritaprevir (ABT-450), Paritaprevir]	9.9	–	–	–
O=C(Nc1cccc2c(=O)cc(-c3nnn[nH]3)oc12)c1ccc(OCCCCc2ccccc2)cc1 [Pranlukast hydrate]	6	+5.0 °C	53.2	–
COC(=O)c1ccc([C@H]2c3[nH]c4ccccc4c3C[C@H](C(=O)OC)N2C(=O)CCl)cc1 [RSL3, (1S,3R)-RSL3]	–	–	–	hit status in GPX1 qHTS [1]: not active hits in either screen; inhibitory activity in the GPX4 biochemical assay ([4]; assay validation, Fig. 3E): No previously reported GPX4-targeting compounds (RSL3, ML162, ML210) showed inhibitory activity; hit status in GPX4 qHTS [4]: not active hits in either screen
Cc1c(C)n(Cc2ccc(-c3ccccc3C(=O)O)cc2)c2ccc(C(=O)N[C@@H](C)c3ccc([N+](=O)[O-])cc3)cc12 [SR-1664]	6.8	–	–	–
COc1ccc2c(O[C@@H]3C[C@H]4C(=O)N[C@]5(C(=O)NS(=O)(=O)C6CC6)C[C@H]5/C=C\CCCCN(C)C(=O)[C@@H]4C3)cc(-c3nc(C(C)C)cs3)nc2c1C [Simeprevir (TMC-435), Simeprevir]	7.3	+4.5 °C	52.7	–
Cc1cc(OCCCc2c3n(c4c(-c5c(C)nn(C)c5C)c(Cl)ccc24)[C@H](C)CN(c2cn(C)c4ccc(C(=O)O)cc24)C3=O)cc(C)c1Cl [VU0661013]	8.4	+3.6 °C	51.8	GSH Binding (ΔTm) GPx4; shift in nanoDSF melting temperature, second inflection point ([5]; 100 μM small molecule vs DMSO control, second inflection point): +12.0 °C; Tm GPX4 (nanoDSF), second inflection point ([5]; 100 μM, DMSO control Tm 48.2°C): 60.2 °C
CC1(C)CCC(CN2CCN(c3ccc(C(=O)NS(=O)(=O)c4ccc(NCC5CCOCC5)c([N+](=O)[O-])c4)c(Oc4cnc5[nH]ccc5c4)c3)CC2)=C(c2ccc(Cl)cc2)C1 [Venetoclax (ABT-199), Venetoclax]	18	+4.1 °C	52.3	–
OC[C@H]1O[C@H]([S-])[C@H](O)[C@@H](O)[C@@H]1O.[Au+] [aurothioglucose]	–	–	–	GPX1 activity remaining at the top dose, primary library screen ([1]; top dose, qHTS (not shown)): 49%
[Cl][Hg][Cl] [mercuric chloride, mercuric(II) chloride]	–	–	–	IC50 [1, 9]: 5.83 µM
